The text below walks through data of patent US9725459B2, “3-oxo-tetrahydro-furo[3,2-B]pyrrol-4(5H)-yl) derivatives I” (GRÜNENTHAL GMBH, priority 2014, dated 2017).

SMILES strings stand for the structures.

The target in one series is human cathepsin S (CatS) (Homo sapiens (Human), UniProt P25774). The series is described as follows: CatS functional enzyme assay. Format: biochemical. The settings on record: for Selectivity Ki(hCatS)/Ki(hCatK): ratio Ki(hCatS)/Ki(hCatK); for Ki: recombinant human CatS, substrate Z-VVR-AMC 5 μM, pH 6.5, Ki by Cheng Prusoff equation, read-out: hCatS, Ki. In a few lines: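 Recombinant human enzymes were incubated 10 min at RT with AMC substrate: CatS 0.0007 mU/well with Z-VVR-AMC 5 µM; CatK 0.00175 mU/well with Z-FR-AMC 40 µM; CatL 0.000874 mU/well with Z-VVR-AMC 40 µM. Fluorescence gave IC50, converted to Ki by Cheng-Prusoff.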
human cathepsin S (CatS), sequence (P25774 115-331): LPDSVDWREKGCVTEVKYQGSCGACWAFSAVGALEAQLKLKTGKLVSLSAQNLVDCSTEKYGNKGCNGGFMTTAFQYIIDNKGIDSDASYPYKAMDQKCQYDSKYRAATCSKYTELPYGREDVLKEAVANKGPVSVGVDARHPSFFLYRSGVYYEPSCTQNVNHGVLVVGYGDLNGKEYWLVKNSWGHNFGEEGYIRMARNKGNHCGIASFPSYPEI

A further series concerns the target human cathepsin K (CatK) (Homo sapiens (Human), UniProt P43235). In words: CatK functional enzyme assay. The settings on record: recombinant human CatK, substrate Z-FR-AMC 40 μM, pH 5.5; Ki by Cheng Prusoff equation; read-out: hCatK, Ki. Format: biochemical. Put shortly:
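Recombinant human enzymes in 50 mM NaOAc, 10 mM EDTA, 1 mM DTT, 0.01% Triton X-100, pH 5.5, 10 min at RT. CatK: 0.00175 mU/well with 40 μM Z-FR-AMC; CatL: 0.000874 mU/well with 40 μM Z-VVR-AMC. AMC fluorescence read; IC50 converted to Ki via Cheng–Prusoff.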

The target of another series is human cathepsin L (CatL) (Homo sapiens (Human), UniProt P07711). The series is described as follows: CatL functional enzyme assay. Format: biochemical. The settings on record: read-out: hCatL, inhibition [%] at 31.6 μM.
human cathepsin L (CatL), sequence (P07711 114-333): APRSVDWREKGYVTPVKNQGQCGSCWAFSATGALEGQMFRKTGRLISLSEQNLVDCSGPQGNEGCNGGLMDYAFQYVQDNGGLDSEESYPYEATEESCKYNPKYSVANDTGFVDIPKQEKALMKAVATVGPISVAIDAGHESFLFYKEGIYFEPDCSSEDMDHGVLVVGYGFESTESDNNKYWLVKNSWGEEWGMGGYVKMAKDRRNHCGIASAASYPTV
Series [1] in a line: Caco 2 permeability assay. In kind it is in vitro ADME, human. The settings on record: human; for efflux ratio at 120 min, 10 μM: pH 7.4, efflux ratio ER=Peff(B−A)/Peff(A−B), Caco-2; for Papp A→B at 120 min, 10 μM / Papp B→A at 120 min, 10 μM: Caco-2 monolayer, HBSS pH 7.4; for Papp A→B at 120 min, 10 μM: apical to basolateral, read-out: Peff a − b; for Papp B→A at 120 min, 10 μM: basolateral to apical, read-out: Peff b − a. Here is the method:
(§1) The intestinal permeability of a potential drug is assessed by in vitro cell culture from a human colon adenoma-carcinoma derived cell line. This cell line expresses some of the systems considered relevant to active drug transport e.g. […] (P-gp). In vitro cellular permeability assays can reflect both, permeation by passive diffusion and active transport (uptake and efflux). The rate of permeation across monolayers of Caco 2 cells were correlated to the extents of absorption (Hidalgo et al., Gastroenterology 1989; 96(3):736 49). Original methodology was developed by Artursson and Taveli (Drug Bioavailability. Series: Methods and Principles in Medicinal Chemistry. Weinheim: Wiley-VCH Verlag; 2003; p. 72-89).
(§2) The assay is performed as a trans-flux experiment. Caco-2 cells (cells from ATCC) are seeded and grown to confluence to form a monolayer (ca. 3 weeks, between passage numbers 40-60) on a readily permeable support in a plastic well supported within a chamber (Millipore Multiscreen Caco-2 plates, at a cell density of ca. 1×10^5 cells/cm^2). Cells are cultured for 20 days in DMEM and media is changed every two or three days. The cells form tight junctions, so paracellular diffusion is not possible, and grow in a polarised manner, efflux transporters (P-gp) are expressed on their apical surfaces facing the culture medium, rather than at their basolateral surfaces through which they are attached to the support membrane. A low concentration of a test compound is added to the upper (apical: A) or lower (basolateral: B) chambers, and the rate of loss from the donor compartment, and the rate of transfer to the acceptor chamber, is determined by LC-MS/MS. Consequently the influence of efflux transporters expressed in the apical membrane can be determined by comparing permeability rates from A to B and B to A. Assays are generally performed in gently shaken protein-free buffer.
(§3) On ca. day 20 the permeability study is performed. The monolayers are prepared by rinsing both basolateral and apical surfaces twice with Hanks Balanced Salt Solution (HBSS) pH 7.4 buffer with HEPES (25 mM) and 4.45 mM glucose at 37° C. Cells are then incubated with HBSS in both apical and basolateral compartments for 40 min to stabilise physiological parameters. Incubations are carried out in an atmosphere of 5% CO2 with a rel. humidity of 95% at 37° C.
(§4) HBSS is next removed from the apical compartment and replaced with test compound dosing solution. Test compound dosing solutions are made by diluting 10 mM test compound in DMSO with HBSS to give a final test compound concentration of 10 μM (final DMSO concentration 1%).
(§5) The fluorescent integrity marker lucifer yellow is also included in the dosing solution. Analytical standards are made from dosing solutions. The apical compartment inserts are then placed into ‘companion’ plates containing fresh HBSS. For basolateral to apical (B-A) permeability determination the experiment is initiated by replacing buffer in the inserts then placing them in companion plates containing dosing solutions. At 120 min the companion plate is removed and apical and basolateral samples diluted for analysis by LC-MS/MS. Test compound permeability is assessed in duplicate. […] Talinolol (a known P-gp substrate 2) is also included as a control compound to assess whether functional P-gp is present in the Caco-2 cell monolayer.
(§6) Test and control compounds are quantified by LC-MS/MS cassette analysis using a 5-point calibration with appropriate dilution of the samples. The starting concentration (C0) and experimental recovery are calculated from both apical and basolateral compartment concentrations.
(§7) Apparent permeability (Papp), used interchangeably with effective permeability (Peff) and efflux ratio (ER) are generated for each compound and reference compound. The permeability coefficient for each compound (Papp) is calculated from the following equation: Peff=dQ/dt/C0×A […]
For orientation: Caco-2 monolayers are a common model of the intestinal barrier.

Another series has as its system Caco-2 cells. The series is described as follows: Caco 2 permeability assay. Format: in vitro ADME, human. Conditions: Caco-2, verbal assessment. How it is done: as §1, §2, §3, §4, §5, §6, §7

human cathepsin K (CatK), sequence (P43235 115-329): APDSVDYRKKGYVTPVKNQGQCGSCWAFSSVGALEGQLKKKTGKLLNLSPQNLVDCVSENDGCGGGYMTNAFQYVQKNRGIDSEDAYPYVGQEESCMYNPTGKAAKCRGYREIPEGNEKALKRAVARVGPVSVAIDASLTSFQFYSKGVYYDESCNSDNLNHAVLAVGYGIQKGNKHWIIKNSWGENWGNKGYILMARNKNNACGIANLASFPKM

In the case of `O=C(N[C@H](C(=O)N1C[C@H](Cl)[C@H]2OCC(=O)[C@H]21)C1CCCCC1)c1ccc(-c2ccncn2)s1` [Example 7, N-((S)-2-((3aS,6S,6aS)-6-chloro-3-oxotetrahydro-2H-furo[3,2-b]pyrrol-4(5H)-yl)-1-cyclohexyl-2-oxoethyl)-5-(pyrimidin-4-yl)thiophene-2-carboxamide], at human cathepsin S (CatS), the “Selectivity Ki(hCatS)/Ki(hCatK)” value turned out to be 4.7; the Ki – broadly, the dissociation constant of the complex between target and ligand, obtained from inhibition or displacement – was determined as 56 nM. On human cathepsin K (CatK), the inhibition constant Ki was determined as 12 nM. Besides, on human cathepsin L (CatL), the inhibition (commonly the change of the read-out against control, counted positive when it falls) at 31.6 µM came out at 28%. Further, in series [1], the efflux ratio (in general, the permeability from basolateral to apical divided by that in the opposite direction, in the common usage) at 120 min, 10 μM turned out to be 1.3; the Papp A→B at 120 min, 10 μM came to 5.37 ×10⁻⁶ cm/s; the Papp B→A at 120 min, 10 μM was 7.03 ×10⁻⁶ cm/s. Further, in the series with Caco-2 cells, the “A to B permeability (in words)” value is “moderate”, the “B to A permeability (in words)” value is “good” and the “efflux ratio (ER) (in words)” value was “intermediate/low”.

For the compound `O=C(N[C@H](C(=O)N1C[C@H](Cl)[C@H]2OCC(=O)[C@H]21)C1CCCCC1)c1ccc(-c2ccnnc2)s1` [Example 8, N-((S)-2-((3aS,6S,6aS)-6-chloro-3-oxotetrahydro-2H-furo[3,2-b]pyrrol-4(5H)-yl)-1-cyclohexyl-2-oxoethyl)-5-(pyridazin-4-yl)thiophene-2-carboxamide], on human cathepsin S (CatS), the “Selectivity Ki(hCatS)/Ki(hCatK)” value stood at 1.2 and the inhibition constant (Ki) was determined as 21 nM. Besides, the Ki at human cathepsin K (CatK) came to 17 nM. For the same compound, the inhibition at 31.6 µM on human cathepsin L (CatL) came out at 32%. In series [1], the efflux ratio at 120 min, 10 μM came out at 7.5; the Papp A→B at 120 min, 10 μM came to 1.67 ×10⁻⁶ cm/s; the Papp B→A at 120 min, 10 μM amounted to 12.5 ×10⁻⁶ cm/s. In the series on Caco-2 cells, the “A to B permeability (in words)” value is reported as “moderate”, the “B to A permeability (in words)” value is on record as “good” and the “efflux ratio (ER) (in words)” value is on record as “intermediate/low”.

As to `O=C(N[C@H](C(=O)N1C[C@H](Cl)[C@H]2OCC(=O)[C@H]21)C1CCCCC1)c1cccc(-c2cn[nH]c2)c1` [Example C1, N-((S)-2-((3aS,6S,6aS)-6-chloro-3-oxotetrahydro-2H-furo[3,2-b]pyrrol-4(5H)-yl)-1-cyclohexyl-2-oxoethyl)3-(1H-pyrazol-4-yl)benzamide, reference compound], on human cathepsin S (CatS), the “Selectivity Ki(hCatS)/Ki(hCatK)” value was 3.8 and the Ki is 146 nM. The Ki on human cathepsin K (CatK) was determined as 38 nM. Besides, on human cathepsin L (CatL), the inhibition at 31.6 µM was 71%. For the same compound, in series [1], the efflux ratio at 120 min, 10 μM amounted to 46.1; the Papp A→B at 120 min, 10 μM amounted to 0.53 ×10⁻⁶ cm/s; the Papp B→A at 120 min, 10 μM was found to be 24.6 ×10⁻⁶ cm/s. In the series with Caco-2 cells, the “A to B permeability (in words)” value is recorded as “poor”, the “B to A permeability (in words)” value is reported as “good” and the “efflux ratio (ER) (in words)” value is recorded as “extremely high”.
